Laboratory results: PubChem BioAssay AID1963869 (Molecular Pharmacology Branch, DTP, NCI, 2024)
Values joined by “and” are separate entries in the source; they are usually repeats but may differ in a detail not shown here. Equal entries are not always repeated.

Test system: KRAS patient-derived spheroids with HUVEC/MSC, viability
Test: Anticancer human tumor 323965-272-R-J2-PDC patient-derived pancreatic carcinoma cell line growth inhibition [KRAS2]
Details: for viability, T/C: stronger effect = lower value
Outline: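 KRAS-mutant tumor cells were grown as spheroids with HUVEC endothelial cells and human MSCs as stroma. Targeted agents were tested alone and with KRAS pathway inhibitors. Doses started at or near clinical Cmax, or 10 microM, descending half-log.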

[1] = curve of first compound, second compound 0.1 µM
[2] = curve of first compound, second compound 0.316 µM
[3] = curve of first compound, second compound 1 µM
[4] = curve of first compound, second compound 3.16 µM
[5] = curve of first compound, second compound 10 µM
[6] = second compound 0.1 µM, first compound 0.01 µM
[7] = second compound 0.1 µM, first compound 0.0316 µM
[8] = second compound 0.1 µM, first compound 0.1 µM
[9] = second compound 0.316 µM, first compound 0.01 µM
[10] = second compound 0.316 µM, first compound 0.0316 µM
[11] = second compound 0.316 µM, first compound 0.1 µM
[12] = second compound 1 µM, first compound 0.01 µM
[13] = second compound 1 µM, first compound 0.0316 µM
[14] = second compound 1 µM, first compound 0.1 µM
[15] = second compound 3.16 µM, first compound 0.01 µM
[16] = second compound 3.16 µM, first compound 0.0316 µM
[17] = second compound 3.16 µM, first compound 0.1 µM
[18] = second compound 10 µM, first compound 0.01 µM
[19] = second compound 10 µM, first compound 0.0316 µM
[20] = second compound 10 µM, first compound 0.1 µM
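Further: spheroids exposed to agents for 7 days.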
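Wherever viability, T/C is given: 100% = DMSO vehicle control viability.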

For `CC(=O)OC12COC1CC(O)C1(C)C(=O)C(O)C3=C(C)C(OC(=O)C(O)C(NC(=O)OC(C)(C)C)c4ccccc4)CC(O)(C(OC(=O)c4ccccc4)C21)C3(C)C` (configuration not stated) + COc1cc2nc(C)nc(NC(C)c3cc(N)cc(C(F)(F)F)c3)c2cc1OC1CCOC1, the IC50 [1] was less than 10 nM, the IC50 [2] was less than 10 nM and the IC50 [3] was less than 10 nM. The IC50 [4] was less than 10 nM, the IC50 [5] was less than 10 nM and the viability, T/C [6] was 28.6%. The viability, T/C [7] was 28.6%, the viability, T/C [8] was 23.8% and the viability, T/C (second compound 0.1 µM, first compound 0.316 µM) was 23.2%. The viability, T/C (second compound 0.1 µM, first compound 1 µM) was 28.2%, the viability, T/C (second compound 0.1 µM, first compound 3.16 µM) was 25.2% and the viability, T/C [9] was 24.2%. It also gave a viability, T/C [10] of 24.5%, a viability, T/C [11] of 21.6% and a viability, T/C (second compound 0.316 µM, first compound 0.316 µM) of 22.4%. The viability, T/C (second compound 0.316 µM, first compound 1 µM) was 24.5%, the viability, T/C (second compound 0.316 µM, first compound 3.16 µM) was 25.2% and the viability, T/C [12] was 21.6%. For the same compound, the viability, T/C [13] was 28%, the viability, T/C [14] was 27.6% and the viability, T/C (second compound 1 µM, first compound 0.316 µM) was 27.2%. It also gave a viability, T/C (second compound 1 µM, first compound 1 µM) of 30.4%, a viability, T/C (second compound 1 µM, first compound 3.16 µM) of 35.3% and a viability, T/C [15] of 21.4%. The viability, T/C [16] was 20.1%, the viability, T/C [17] was 18.8% and the viability, T/C (second compound 3.16 µM, first compound 0.316 µM) was 20.4%. It also gave a viability, T/C (second compound 3.16 µM, first compound 1 µM) of 20.1%, a viability, T/C (second compound 3.16 µM, first compound 3.16 µM) of 24.3% and a viability, T/C [18] of 23.1%. For the same compound, the viability, T/C [19] was 21.2%, the viability, T/C [20] was 17.8% and the viability, T/C (second compound 10 µM, first compound 0.316 µM) was 17.1%. For the same compound, the viability, T/C (second compound 10 µM, first compound 1 µM) was 21.2% and the viability, T/C (second compound 10 µM, first compound 3.16 µM) was 15.8%.
`CC(C)n1nc(-c2ccc3oc(N)nc3c2)c2c(N)ncnc21` + COc1cc2nc(C)nc(NC(C)c3cc(N)cc(C(F)(F)F)c3)c2cc1OC1CCOC1 gave an IC50 [1] of 1.83 nM, an IC50 [2] of 0.955 nM and an IC50 [3] of 0.736 nM. For the same compound, the IC50 [4] was 0.769 nM, the IC50 [5] was 1.41 nM and the viability, T/C (second compound 0.1 µM, first compound 0.000316 µM) was 67.1%. It also gave a viability, T/C (second compound 0.1 µM, first compound 0.001 µM) of 60.1%, a viability, T/C (second compound 0.1 µM, first compound 0.00316 µM) of 40.8% and a viability, T/C [6] of 26.4%. It also gave a viability, T/C [7] of 19%, a viability, T/C [8] of 14.5% and a viability, T/C (second compound 0.316 µM, first compound 0.000316 µM) of 64.5%. The viability, T/C (second compound 0.316 µM, first compound 0.001 µM) was 48.2%, the viability, T/C (second compound 0.316 µM, first compound 0.00316 µM) was 37.1% and the viability, T/C [9] was 23.8%. For the same compound, the viability, T/C [10] was 17.4%, the viability, T/C [11] was 15.7% and the viability, T/C (second compound 1 µM, first compound 0.000316 µM) was 58.1%. It also gave a viability, T/C (second compound 1 µM, first compound 0.001 µM) of 47.6%, a viability, T/C (second compound 1 µM, first compound 0.00316 µM) of 33.1% and a viability, T/C [12] of 24.8%. For the same compound, the viability, T/C [13] was 16.7%, the viability, T/C [14] was 14% and the viability, T/C (second compound 3.16 µM, first compound 0.000316 µM) was 54.4%. It also gave a viability, T/C (second compound 3.16 µM, first compound 0.001 µM) of 49.4%, a viability, T/C (second compound 3.16 µM, first compound 0.00316 µM) of 30.2% and a viability, T/C [15] of 17.7%. For the same compound, the viability, T/C [16] was 12.9%, the viability, T/C [17] was 11.8% and the viability, T/C (second compound 10 µM, first compound 0.000316 µM) was 58.5%. It also gave a viability, T/C (second compound 10 µM, first compound 0.001 µM) of 60.2%, a viability, T/C (second compound 10 µM, first compound 0.00316 µM) of 32.3% and a viability, T/C [18] of 18.4%. The viability, T/C [19] was 9.07% and the viability, T/C [20] was 8.86%.
For `Cn1ncnc1[C@H]1c2n[nH]c(=O)c3cc(F)cc(c23)N[C@@H]1c1ccc(F)cc1`, the viability, T/C (compound 0.000316 µM) was 107% [middle of 4 runs], the viability, T/C (compound 0.001 µM) was 104% [middle of 4 runs] and the viability, T/C (compound 0.00316 µM) was 109% (2×) and 98.1% and 107%. The viability, T/C (compound 0.01 µM) was 101% [middle of 4 runs], the viability, T/C (compound 0.0316 µM) was 101% [middle of 4 runs] and the viability, T/C (compound 0.1 µM) was 89.2% [middle of 4 runs]. For the same compound, the IC50 (curve of compound) was greater than 100 nM.
